Read-outs that look alike come from different tables or passages of the source.
What was measured:
Human Serum Albumin [1] = conditions: cited from earlier work
Human Serum Albumin [2] = conditions: cited from earlier work; for first order binding constant KA to human serum albumin: Kragh-Hansen et al. 1974
HSA [3] = biological target: T1, HSA (Homo sapiens, UniProt P02768); experiment: Bromophenol blue-HSA binding and competitive displacement by bilirubin, ultrafiltration, 590 nm
T1 construct: purchased Pentex, Miles Laboratories, Inc
From the text: In this Example, a solution assay for bilirubin in accord with the method of the present invention is illustrated. […] Using an Amicon Ultraflo Membrane Cone CF-25 (having a molecular weight cutoff of 25,000 daltons) in an ultrafiltration technique as described by U. Kragh-Hansen et. al., Biochim. et Biophys.

[4] = 435 nanometers; cited from earlier work
HSA [5] = biological target: T1, HSA; experiment: ANS-HSA complex solution assay, fluorescence (ANS binding and displacement by bilirubin)
Protocol: Where the detectable ligand used in the following Examples was a fluorescent probe, arbitrary fluorescence, F, was recorded both immediately before and after addition of bilirubin (B) to the complex. The difference in these F values (i.e. ΔF) was then expressed as a percentage value by arbitrarily designating the F value for the complex at 100 prior to addition of any bilirubin analyte to the complex (i.e. at zero B concentration). A series of Δ F values were then plotted for a given complex having a constant D/P ratio against a series of liquid test samples containing varying B concentrations. As a result, one obtained a calibration curve for that complex. A liquid test sample containing an unknown amount of B, could then be evaluated by the Δ F value for that sample using the calibrated complex and then locating this Δ F value on the previously prepared calibration curve for the complex.
In this Example, fluorescence of the ANS-albumin complex was obtained by exciting the complex at an excitation maximum of 386 nanometers. […] As is known, the fluorescent probe ANS is highly fluorescent when associated with albumin, but is non-fluorescent when free in solution.
The fluorescence of each of these individual test solutions was monitored as bilirubin-containing test samples were admixed into these individual solutions. […]

[6] = Molar absorptivity / extinction coefficient; format: physicochemical; conditions: at or near 590 nanometers
From the text: Among others, there are various direct spectrophotometric assay techniques for bilirubin which take advantage of the molar absorbtivity inherent in bilirubin. That is, bilirubin is a yellow pigment having a molar absorbtivity of about 5 × 10^4 as measured at 435 nanometers. However, although the molar absorbtivity of bilirubin is high enough to be useful in various direct spectrophotometric solution assay techniques, it is not sufficiently high to produce a quantitative assay for bilirubin using "dry chemistry" analytical test elements. Thus, present-day direct spectrophotometric assay techniques for bilirubin are generally limited to solution assay techniques, particularly if accurate, quantitative results are desired. […] In addition, other materials present in bilirubin-containing biological fluids such as human serum can also cause spectral interferences using such direct spectrophotometric assay methods.
In this Example, a solution assay for bilirubin in accord with the method of the present invention is illustrated. The assay of the present Example is similar to that described in Examples 1 and 2 above, except that the present Example illustrates the use of a colorimetric, rather than a fluorometric, assay using bromophenol blue indicator dye as the detectable ligand in the bilirubin-active complex. […]

T1 sequence (P02768 25-609): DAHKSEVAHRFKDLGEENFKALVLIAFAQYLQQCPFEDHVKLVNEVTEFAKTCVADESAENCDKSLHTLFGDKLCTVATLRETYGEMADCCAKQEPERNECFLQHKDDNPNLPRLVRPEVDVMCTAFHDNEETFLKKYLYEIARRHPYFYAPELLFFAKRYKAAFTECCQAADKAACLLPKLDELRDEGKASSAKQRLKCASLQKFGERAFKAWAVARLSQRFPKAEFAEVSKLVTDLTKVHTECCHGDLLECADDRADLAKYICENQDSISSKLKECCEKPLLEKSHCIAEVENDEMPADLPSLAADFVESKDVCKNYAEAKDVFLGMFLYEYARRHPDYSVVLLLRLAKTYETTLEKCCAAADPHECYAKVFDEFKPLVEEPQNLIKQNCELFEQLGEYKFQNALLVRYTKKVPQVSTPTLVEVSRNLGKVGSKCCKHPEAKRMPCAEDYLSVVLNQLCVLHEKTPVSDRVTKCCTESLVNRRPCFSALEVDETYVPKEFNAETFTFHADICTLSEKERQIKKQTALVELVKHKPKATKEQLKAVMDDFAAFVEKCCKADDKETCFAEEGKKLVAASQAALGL

C[C@]12CCC(=O)C=C1CC[C@@H]1[C@@H]2[C@@H](O)C[C@]2(C=O)[C@@H](C(=O)CO)CC[C@@H]12 [Aldosterone]
Binding Constant of primary or high affinity site(s) KA (Human Serum Albumin [1]; pH 7.4, 5° C): < 5000 M⁻¹

C=CC1=C(C)/C(=C/c2[nH]c(Cc3[nH]c(/C=C4\NC(=O)C(C)=C4C=C)c(C)c3CCC(=O)O)c(CCC(=O)O)c2C)NC1=O [Bilirubin]
first order binding constant KA to human serum albumin (Human Serum Albumin [2]): greater than 10^8 M^-1
Kd (Human Serum Albumin [2]; example given for comparison in Example 3, read-out: binding constant to albumin): ~10 nM
inhibition at 0.244 µg/mL (HSA [3]; pH 7.4, read-out: decrease in bromophenol blue binding to HSA, standard test solution about 0.0244 mg bilirubin per deciliter added): ~33%
amount of bromophenol blue competitively displaced from the albumin carrier (HSA [3]; standard test solution approximately 10 mg bilirubin per deciliter, compared with 0.0244 mg/dl): substantially higher amount
molar absorbtivity [4]: about 5 × 10^4
Binding Constant of primary or high affinity site(s) KA (Human Serum Albumin [1]; pH 7.4, 25° C): 2.4e+08 M⁻¹
Binding Constant of primary or high affinity site(s) KA (Human Serum Albumin [1]; pH 7.4, 37° C): 1.4e+08 M⁻¹
reduction in fluorescence of ANS/HSA complexes (displacement of ANS) (HSA [5]; 0.066 mg/dl bilirubin added, pH 7.4): drastic reduction in fluorescence
extent of displacement of ANS from albumin (change in fluorescence) versus bilirubin (HSA [5]; 25 micromoles/l ANS, 15 micromoles/l HSA, bilirubin 0.03-0.33 mg/dl): quasi-linearly related to the amount of bilirubin added

O=C1NC(=O)C(c2ccccc2)(c2ccccc2)N1 [Dipheylhydantoin, reference compound]
Binding Constant of primary or high affinity site(s) KA (Human Serum Albumin [1]; pH not given (--), 37° C): 6000 M⁻¹

C[C@]12CC[C@@H]3c4ccc(O)cc4CC[C@H]3[C@@H]1CC[C@@H]2O [Estradiol]
Binding Constant of primary or high affinity site(s) KA (Human Serum Albumin [1]; pH 7.4, 5° C): 100000 M⁻¹

N[C@@H](Cc1cc(I)c(Oc2cc(I)c(O)c(I)c2)c(I)c1)C(=O)O [L-thyroxine]
Binding Constant of primary or high affinity site(s) KA (Human Serum Albumin [1]; pH 7.4, 24° C): 10^6 M^-1

N[C@@H](Cc1c[nH]c2ccccc12)C(=O)O [L-tryptophan]
Binding Constant of primary or high affinity site(s) KA (Human Serum Albumin [1]; pH 7.4, 2° C): 16000 M⁻¹

CC(=O)[C@H]1CC[C@H]2[C@@H]3CCC4=CC(=O)CC[C@]4(C)[C@H]3CC[C@]12C [Progesterone]
Binding Constant of primary or high affinity site(s) KA (Human Serum Albumin [1]; pH 7.4, 5° C): 37000 M⁻¹

O=C(O)c1ccccc1 [Sodium benzoate]
Binding Constant of primary or high affinity site(s) KA (Human Serum Albumin [1]; pH 7.4, 37° C): 1700 M⁻¹

Nc1ccc(S(=O)(=O)Nc2ncccn2)cc1 [Sulfadiazine, reference compound]
Binding Constant of primary or high affinity site(s) KA (Human Serum Albumin [1]; pH 7.4, 37° C): 820 M⁻¹

Cc1noc(NS(=O)(=O)c2ccc(N)cc2)c1C [Sulfisoxazole, reference compound]
Binding Constant of primary or high affinity site(s) KA (Human Serum Albumin [1]; pH 7.4, 37° C): 19000 M⁻¹

C[C@]12CC[C@H]3[C@@H](CCC4=CC(=O)CC[C@@]43C)[C@@H]1CC[C@@H]2O [Testosterone]
Binding Constant of primary or high affinity site(s) KA (Human Serum Albumin [1]; pH 7.4, 25° C): 42000 M⁻¹

O=c1[nH]c(=O)c2[nH]c(=O)[nH]c2[nH]1 [Urate]
Binding Constant of primary or high affinity site(s) KA (Human Serum Albumin [1]; pH 7.4, 37° C): 300 M⁻¹

O=S1(=O)OC(c2cc(Br)c(O)c(Br)c2)(c2cc(Br)c(O)c(Br)c2)c2ccccc21 [bromophenol blue, reference compound]
Kd (HSA [3]): 500 nM
approximate maximum molar binding ratio of bromophenol blue to HSA (HSA [3]; 0.05 M sodium phosphate pH 7.4): about 3.4
extinction coefficient [6]: approximately 78,000

CCCCCCCCCCCCCCCC(=O)O [palmitate]
Binding Constant of primary or high affinity site(s) KA (Human Serum Albumin [1]; pH 7.4, 23° C): 10^6 M^-1

O=S1(=O)OC(c2ccc(O)cc2)(c2ccc(O)cc2)c2ccccc21 [phenol red, reference compound]
first order binding constant KA to human serum albumin (Human Serum Albumin [2]): about 10^4 M^-1

Gentamicin sulfate [reference compound]
Binding Constant of primary or high affinity site(s) KA (Human Serum Albumin [1]; pH 7.4, 37° C): < 10 M⁻¹

Polymyzin B sulfate [reference compound]
Binding Constant of primary or high affinity site(s) KA (Human Serum Albumin [1]; pH 7.4, 37° C): < 100 M⁻¹
